Usually IC50 stands for the concentration that inhibits the measured activity by half. What is called melting point is the temperature of the solid-liquid transition. The inhibition is the share of the control response that was lost under treatment.

Drawing on article PMC11013477, “Lycocasine A, a Lycopodium Alkaloid from Lycopodiastrum casuarinoides and Its Acid-Sensing Ion Channel 1a Inhibitory Activity” (Molecules, 2024), this text covers IC50, melting point and inhibition for six compounds.

Like-named read-outs stand apart in the source and are kept apart here.

The target in data set [1] is T1, ASIC1a (Homo sapiens, UniProt P78348).
T1 construct: expressed in transfected cells; host or cells: HEK293T
T1 sequence (P78348 1-528): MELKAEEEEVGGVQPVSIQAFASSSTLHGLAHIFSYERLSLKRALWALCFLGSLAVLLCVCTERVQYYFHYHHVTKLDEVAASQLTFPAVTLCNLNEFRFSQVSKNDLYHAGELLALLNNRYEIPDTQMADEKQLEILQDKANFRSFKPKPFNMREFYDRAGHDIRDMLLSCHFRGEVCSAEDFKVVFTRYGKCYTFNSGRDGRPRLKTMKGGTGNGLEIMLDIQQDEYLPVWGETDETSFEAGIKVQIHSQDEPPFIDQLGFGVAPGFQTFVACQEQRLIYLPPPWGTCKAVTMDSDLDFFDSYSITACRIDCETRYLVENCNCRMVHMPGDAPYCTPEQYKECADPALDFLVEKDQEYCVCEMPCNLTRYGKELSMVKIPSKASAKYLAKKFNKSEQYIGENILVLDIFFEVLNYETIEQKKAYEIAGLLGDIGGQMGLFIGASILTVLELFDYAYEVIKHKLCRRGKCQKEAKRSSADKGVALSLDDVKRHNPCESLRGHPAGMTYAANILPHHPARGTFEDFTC
The following applies: read-out: IC50 ASIC1a inhibition; cited from earlier work.

Data set [2] concerns the target T1, ASIC1a. The data set is described as follows: Whole-cell voltage-clamp recording of ASIC1a currents in transfected HEK293T cells. The following applies: for inhibition at 50 µM: HEK-293T. It is filed as cell-based. The method, then:
Cells were plated at a low density in 12-well plates 24 h prior to transfection. For transfection, Lipofectamine 3000 (Invitrogen, Thermo Fisher Scientific, Inc., Waltham, MA, USA) was utilized to introduce 300 ng of ASIC1a cDNA into adherent cells, which were then analyzed for 24–48 h post-transfection. […] Borosilicate glass micropipettes, fashioned to achieve a resistance of 2–6 MΩ, were filled with an intracellular recording solution comprising 140 mM KCl, 2 mM MgCl2, 5 mM EGTA, 5 mM NaCl, and 10 mM HEPES (adjusted to pH 7.4 with KOH). […] Current signals were amplified using a SUTTER IPA-2 amplifier, with data acquisition and analysis performed using SutterPatch 9.0 software. Data processing was carried out using GraphPad Prism version 8.0.

Where [3] appears, read: 50 μM, HEK293T cells transfected with ASIC1a, currents triggered by pH 6.0, holding potential −60 mV, read-out: inhibition rate of ASIC1a currents.

`COc1cc2c(cc1O)[C@H](Cc1ccc(Oc3cc(C[C@@H]4NCCc5cc(OC)c(O)cc54)ccc3O)cc1)NCC2` [Lindoldhamine]: the 50% inhibitory concentration (IC50) in data set [1] is 9 µM.
With `O=c1c(-c2ccc(O)cc2)coc2c([C@@H]3O[C@H](CO)[C@@H](O)[C@H](O)[C@H]3O)c(O)ccc12` [Puerarin], in data set [1], the IC50 is 9.31 µM.
`C=CC1C2C=C(C)CC1(N(C)C)C1=C(C(=O)OC)C(=O)NC1(O)C2` (centres unmarked) [Compound 1, lycocasine A] had a melting point of 187 to 189 °C. Also, the 50% inhibitory concentration (IC50) in data set [2] worked out at 48.7 ± 0.92 µM. The inhibition at 50 µM in data set [2] (pH 6, read-out: inhibition rate of ASIC1a currents) is over 50%.
Take `CC1=C[C@H]2Cc3[nH]c(=O)ccc3[C@]3(C1)NCCC[C@H]23` [Compound 7, huperzine B]: in data set [2] (setting [3]), the inhibition at 50 µM is under 30%.
Still for that read-out and setting: as for `N=C(N)NC(=O)c1nc(Cl)c(N)nc1N` [Amiloride], the figure is over 50%.
As for `COC1=C[C@@H]2[C@@H]3Cc4ccc(OC)c(O)c4[C@]2(CCN3C)CC1=O` [Sinomenine], the concentration for half-maximal inhibition (IC50) in data set [1] is about 1 µM.
